Structures are written as SMILES. Counter-ions that a name gives are not always drawn.

Drawing on patent US8263610B2, “Substituted imidazolyl-5,6-dihydrobenzo[N]isoquinoline compounds” (ArQule, Inc., priority 2008, dated 2012), this text covers melting point for 45 compounds.

Turning to `O=S(=O)(c1ccccc1)N1CCc2c(cnc3[nH]ncc23)C1`, the melting point (commonly the temperature, or range, at which the solid turns liquid) is 270 to 271 °C. With `S=C(Nc1ccccc1)N1CCc2c(cnc3[nH]ncc23)C1` the figure was 200 to 202 °C. With `COc1ccc(CN2CCc3c(cnc4c3cnn4Cc3ccc(OC)cc3)C2)cc1` the figure was 105 to 107 °C; with `O=C(Nc1ccccc1)NC1CCc2c(cnc3[nH]ncc23)C1` (stereo not drawn), more than 216 °C; with `O=C(Nc1ccccc1)C1CCc2c(cnc3[nH]ncc23)C1` (stereo not drawn), more than 300 °C. `COc1ccc(Cn2ncc3c4c(cnc32)CNCC4)cc1` showed a melting point of 96 to 102 °C. The value for `O=C(O)C(F)(F)F.c1nc2[nH]ncc2c2c1CNCC2` was 224 to 227 °C; that for `Cl.c1ccc(-c2n[nH]c3ncc4c(c23)CCNC4)cc1` was 265 °C (dec.).

Take `O=C(C(NCCO)c1ccccc1)N1CCc2c(cnc3[nH]nc(Br)c23)C1.O=C(O)C(F)(F)F` (stereo not drawn): the melting point was more than 115 °C.

The compound `Cl.O=C(C(c1ccccc1)N1CCNCC1)N1CCc2c(cnc3[nH]nc(Br)c23)C1` (stereo not drawn) displayed a melting point of more than 245 °C. Turning to `N[C@H](C(=O)N1CCc2c(cnc3[nH]ncc23)C1)c1ccccc1.O=C(O)C(F)(F)F`, the melting point was more than 100 °C. The value for `c1ccc(CNC2CCc3c(cnc4[nH]ncc34)C2)cc1` (stereo not drawn) (as salt: TFA) was more than 232 °C; that for `Clc1ccccc1C1Cc2cnc3[nH]nc(-c4cnn(C5CCNCC5)c4)c3c2-c2ccccc21` (stereo not drawn) (as salt: TFA) [Example 19, 7-(2-chlorophenyl)-1-(1-piperidin-4-yl-1H-pyrazol-4-yl)-6,7-dihydro-3H-benzo[f]pyrazolo[3,4-c]isoquinoline] was more than 225 °C; that for `O=C(C(NCCc1c[nH]c2ccccc12)c1ccccc1)N1CCc2c(cnc3[nH]ncc23)C1` (stereo not drawn) (as salt: TFA) [Example 84, N-(2-(1H-indol-3-yl)ethyl)-2-(8,9-dihydro-3H-pyrazolo[3,4-c][2,7]naphthyridin-7(6H)-yl)-2-oxo-1-phenylethanaminium 2,2,2-trifluoroacetate] was more than 164 °C. The value for `CN(C)CCNC(=O)c1cccc(NC(=O)N2CCc3c(cnc4[nH]ncc34)C2)c1` (as salt: TFA) [Example 95, N-(3-(2-(dimethylamino)ethylcarbamoyl)phenyl)-8,9-dihydro-3H-pyrazolo[3,4-c][2,7]naphthyridine-7(6H)-carboxamide] was 184 to 196 °C; that for `O=C(NCc1ccccc1)c1cccc(NC(=O)N2CCc3c(cnc4[nH]ncc34)C2)c1` (as salt: TFA) [Example 96, N-[3-(benzylcarbamoyl)phenyl]-3,6,8,9-tetrahydro-7H-pyrazolo[3,4-c][2,7]naphthyridine-7-carboxamide] was more than 135 °C; that for `O=C(c1ccccc1)c1c[nH]c2ncnc(N3CCc4c(cnc5[nH]ncc45)C3)c12` (as salt: TFA) [Example 435, (4-(8,9-dihydro-3H-pyrazolo[3,4-c][2,7]naphthyridin-7(6H)-yl)-7H-pyrrolo[2,3-d]pyrimidin-5-yl)(phenyl)methanone] was 300 to 302 °C.

As for `O=C(Nc1ccccc1)N1CCc2c(cnc3[nH]nc(C4=CCNCC4)c23)C1` (as salt: chloride), the melting point fell in the range of 230 to 231 °C.

Consider `NC(=O)c1cccc(-c2n[nH]c3ncc4c(c23)CCNC4)c1` (as salt: trifluoroacetate), for which the melting point is 240 °C (dec.).

On to `CC(=O)Nc1cccc(-c2n[nH]c3ncc4c(c23)CCNC4)c1` (as salt: trifluoroacetate) [Example 456, 1-(3-acetamidophenyl)-6,7,8,9-tetrahydro-3H-pyrazolo[3,4-c][2,7]naphthyridin-7-ium 2,2,2-trifluoroacetate], for which the melting point is 245 °C (dec.). The value for `COc1ccc(Cn2ncc3c4c(cnc32)CC(NC(=O)c2ccccc2)CC4)cc1` (stereo not drawn) [Compound 5, N-[3-(4-methoxybenzyl)-6,7,8,9-tetrahydro-3H-pyrazolo[3,4-c]isoquinolin-7-yl]benzamide] was more than 65 °C; that for `COc1ccc(Cn2ncc3c4c(cnc32)CN(S(=O)(=O)c2ccccc2)CC4)cc1` [Compound 6, 3-(4-methoxybenzyl)-7-(phenylsulfonyl)-6,7,8,9-tetrahydro-3H-pyrazolo[3,4-c][2,7]naphthyridine] was 136 to 138 °C; that for `Clc1ccc(C2Cc3cnc4[nH]ncc4c3-c3ccccc32)cc1Cl` (stereo not drawn) [Example 1, 7-(3,4-dichlorophenyl)-6,7-dihydro-3H-benzo[f]pyrazolo[3,4-c]isoquinoline] was 168 to 170 °C. With `c1ccc(C2Cc3cnc4[nH]ncc4c3-c3ccccc32)cc1` (stereo not drawn) [Example 2, 7-phenyl-6,7-dihydro-3H-benzo[f]pyrazolo[3,4-c]isoquinoline] the figure was 143 to 145 °C; with `Fc1ccc(C2Cc3cnc4[nH]ncc4c3-c3ccccc32)cc1F` (stereo not drawn) [Example 3, 7-(3,4-difluorophenyl)-6,7-dihydro-3H-benzo[f]pyrazolo[3,4-c]isoquinoline], 195 to 196 °C; with `Clc1ccccc1C1Cc2cnc3[nH]ncc3c2-c2ccccc21` (stereo not drawn) [Example 5, 7-(2-dichlorophenyl)-6,7-dihydro-3H-benzo[f]pyrazolo[3,4-c]isoquinoline], 88 to 91 °C. The value for `Fc1ccc(C2Cc3cnc4[nH]ncc4c3-c3ccccc32)cc1` (stereo not drawn) [Example 6, 7-(4-fluorophenyl)-6,7-dihydro-3H-benzo[f]pyrazolo[3,4-c]isoquinoline] was 167 to 169 °C; that for `Cc1cc(C)c2c(c1)-c1c(cnc3[nH]ncc13)CC2` [Example 7, 8,10-dimethyl-6,7-dihydro-3H-benzo[f]pyrazolo[3,4-c]isoquinoline] was 152 to 155 °C; that for `COc1cccc2c1CCc1cnc3[nH]ncc3c1-2` [Example 8, 8-methoxy-6,7-dihydro-3H-benzo[f]pyrazolo[3,4-c]isoquinoline] was 85 to 89 °C. For `COc1ccc2c(c1)-c1c(cnc3[nH]ncc13)CC2` [Example 9, 10-methoxy-6,7-dihydro-3H-benzo[f]pyrazolo[3,4-c]isoquinoline], the melting point was 95 to 97 °C. As for `c1cnc2c(c1)CCc1cnc3[nH]ncc3c1-2` [Example 10, 6,9-dihydro-5H-pyrazolo[3,4-k][1,8]phenanthroline], the melting point was 263 to 265 °C. The value for `O=[N+]([O-])c1ccc2c(c1)-c1c(cnc3[nH]ncc13)CC2` [Example 14, 10-nitro-6,7-dihydro-3H-benzo[f]pyrazolo[3,4-c]isoquino line] was 214 to 217 °C. `O=c1ccc2c([nH]1)CCc1cnc3[nH]ncc3c1-2` [Example 15, 6,7-dihydro-3H-pyrazolo[4,3-a][3,7]phenanthrolin-9(8H)-one] had a melting point of 290 to 296 °C.

With `Brc1n[nH]c2ncc3c(c12)-c1ccccc1C(c1ccccc1)C3` (stereo not drawn) [Example 16, 1-bromo-7-phenyl-6,7-dihydro-3H-benzo[f]pyrazolo[3,4-c]isoquinoline], the melting point lay in the range of 176 to 178 °C. `CC(C)(C)OC(=O)N1CCC(n2cc(-c3n[nH]c4ncc5c(c34)-c3ccccc3C(c3ccccc3Cl)C5)cn2)CC1` (stereo not drawn) [Example 18, tert-butyl 4-(4-(7-(2-chlorophenyl)-6,7-dihydro-3H-benzo[f]pyrazolo[3,4-c]isoquinolin-1-yl)-1H-pyrazol-1-yl)piperidine-1-carboxylate] displayed a melting point of 139 to 141 °C.

As to `c1ccc2c(c1)NCCc1cnc3[nH]ncc3c1-2` [Example 29, 3,6,7,8-tetrahydropyrazolo[4′,3′:5,6]pyrido[3,4-d][1]benzazepine], the melting point lay within 215 to 217 °C. The value for `CC(C)(C)OC(=O)N1CCc2c(cnc3[nH]ncc23)C1` [Example 76, tert-butyl 8,9-dihydro-3H-pyrazolo[3,4-c][2,7]naphthyridine-7(6H)-carboxylate] was more than 70 °C.

Consider `CC(C)(C)OC(=O)N1CCc2c(cnc3[nH]nc(Br)c23)C1` [Example 77, tert-butyl 1-bromo-8,9-dihydro-3H-pyrazolo[3,4-c][2,7]naphthyridine-7(6H)-carboxylate], for which the melting point is more than 65 °C. With `CC(C)(C)OC(=O)N1CCN(C(C(=O)N2CCc3c(cnc4[nH]nc(Br)c34)C2)c2ccccc2)CC1` (stereo not drawn) [Example 91, tert-butyl 4-(2-(1-bromo-8,9-dihydro-3H-pyrazolo[3,4-c][2,7]naphthyridin-7(6H)-yl)-2-oxo-1-phenylethyl)piperazine-1-carboxylate] the figure was 159 to 161 °C; with `O=C(O)c1cccc(NC(=O)N2CCc3c(cnc4[nH]ncc34)C2)c1` [Example 93b, 3-(6,7,8,9-tetrahydro-3H-pyrazolo[3,4-c][2,7]naphthyridine-7-carboxamido)benzoic acid], 237 to 241 °C.

`O=C(Nc1cccc(C(=O)N2CCC(n3c(=O)[nH]c4ccccc43)CC2)c1)N1CCc2c(cnc3[nH]ncc23)C1` [Example 94, N-(3-(4-(2-oxo-2,3-dihydro-1H-benzo[d]imidazol-1-yl)piperidine-1-carbonyl)phenyl)-8,9-dihydro-3H-pyrazolo[3,4-c][2,7]naphthyridine-7(6H)-carboxamide] came in with a melting point of more than 215 °C. The value for `COc1ccc(Cn2ncc3c4c(cnc32)CN(C(=O)Nc2cccc(C(=O)O)c2)CC4)cc1` [Example 153, 3-(3-(4-methoxybenzyl)-6,7,8,9-tetrahydro-3H-pyrazolo[3,4-c][2,7]naphthyridine-7-carboxamido)benzoic acid] was more than 136 °C; that for `O=S(=O)(NC1CCc2c(cnc3[nH]ncc23)C1)c1ccccc1` (stereo not drawn) [Example 158, N-(6,7,8,9-tetrahydro-3H-pyrazolo[3,4-c]isoquinolin-7-yl)benzenesulfonamide] was 228 to 229 °C. With `O=C(Nc1ccccc1)N1CCc2c(cnc3[nH]ncc23)C1` [Example 318, N-phenyl-8,9-dihydro-3H-pyrazolo[3,4-c][2,7]naphthyridine-7(6H)-carboxamide] the figure was 184 to 186 °C; with `O=C(Nc1ccccc1)N1CCc2cnc3[nH]ncc3c2-c2ccccc21` [Example 319, N-phenyl-6,7-dihydropyrazolo[4′,3′:5,6]pyrido[3,4-d][1]benzazepine-8(3H)-carboxamide], more than 140 °C.
